# In paper PMC4900628, “Critical Evaluation of P2X7 Receptor Antagonists in Selected Seizure Models” (PLoS ONE, 2016):
# Assays:
# P2X7R = molecular target: T1, P2X7R (Rattus norvegicus, UniProt Q64663); experiment: P2X7R brain occupancy, ex vivo receptor binding autoradiography; format: in vivo; details: sc, rats, 15 mg/kg s.c., hippocampal slices, [3H] JNJ-54232334 autoradiography
# T1 construct: from tissue; host or cells: rat (Wistar) brain, hippocampal slices
# T1 sequence (Q64663 1-595): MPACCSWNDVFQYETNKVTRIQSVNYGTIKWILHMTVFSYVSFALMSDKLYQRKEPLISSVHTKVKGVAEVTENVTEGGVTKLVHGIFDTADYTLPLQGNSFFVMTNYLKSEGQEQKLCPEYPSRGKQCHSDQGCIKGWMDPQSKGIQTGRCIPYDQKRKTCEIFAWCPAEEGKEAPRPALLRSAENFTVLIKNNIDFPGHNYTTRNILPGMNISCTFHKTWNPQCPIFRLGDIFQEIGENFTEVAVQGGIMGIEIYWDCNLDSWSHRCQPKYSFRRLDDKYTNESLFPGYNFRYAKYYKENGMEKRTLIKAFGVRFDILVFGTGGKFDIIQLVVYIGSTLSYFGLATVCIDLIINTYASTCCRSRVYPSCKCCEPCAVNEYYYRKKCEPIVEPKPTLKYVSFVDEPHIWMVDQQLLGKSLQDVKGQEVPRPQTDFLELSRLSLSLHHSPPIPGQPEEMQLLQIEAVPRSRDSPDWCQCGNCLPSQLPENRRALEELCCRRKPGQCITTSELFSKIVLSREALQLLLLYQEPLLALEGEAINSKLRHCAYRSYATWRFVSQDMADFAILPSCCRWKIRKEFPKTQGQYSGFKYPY
# Method: Plasma and brain samples from experiments with JNJ-47965567 were quantified at the Neuroscience Therapeutic Area, Janssen Research & Development (San Diego, CA, USA) using an API 4000 MS/MS system (Applied Biosystems, Concord, ON, Canada) interfaced with an Agilent 1100 Series HPLC (Agilent Technologies). To measure the percentage of P2X7R brain occupancy of JNJ-47965567, ex vivo receptor binding autography was performed as recently described. Briefly, 20 μm-thick hippocampal slices were prepared and P2X7R radioligand binding was determined at room temperature with 10 nM [^3H] JNJ-54232334 (Janssen) in 50 mM Tris-HCl incubation buffer containing 0.1% bovine serum albumin. The non-specific binding was measured using adjacent sections incubated in the additional presence of 100 μM A-740003 (Tocris Bioscience, Bristol UK). Sections were incubated for 1 min, washed in ice-cold incubation buffer (4 times, 5 min each), followed by two dips in deionized water and rapidly dry under a stream of cold air before acquisition. Quantitative analysis was performed using the Tracer ß-Imager with M3 Vision software (Biospace Lab, Paris, France). Ex vivo receptor labelling was expressed as the percentage of receptor labelling in corresponding brain areas of vehicle-treated control animals.
# [1] = test system: Iba 1 and GFAP immunoreactivity; experiment: Iba 1 and GFAP immunohistochemistry, hippocampus of PTZ-kindled rats; format: in vivo; details: hippocampus CA3, 24h after the 25th PTZ injection, pre-treated with AFC or JNJ
# Method: One day after the last kindling session (after the 25th injection), vehicle/PTZ and compound/PTZ-treated rats as well as vehicle-only-treated or non-treated (naïve) rats as controls were transcardially perfused under deep CO2-anesthesia with 0.9% NaCl-solution, 2% paraformaldehyde (PFA, in 0.1 M sodium acetate buffer, pH 6.5) and 2% PFA/0.1% glutaraldehyde (in 0.1 M sodium borate buffer, pH 8.5) (see [73]). Brains were removed immediately and placed for 24 h in 2% PFA without glutaraldehyde (in 0.1 M sodium borate buffer, pH 8.5) at 4°C for post-fixation. […]
# For immunohistochemical studies, free-floating slices were incubated in 0.1 M Sørensen’s phosphate buffer (SPP) containing 1% H2O2 for 25 min. […] The immunoreactivity was evaluated using a light microscope (Axioskop, Zeiss) equipped with a CCD digital camera (AxioCam, ICc 1, Zeiss). For quantitative analysis of the GFAP and Iba 1-staining, images (20x magnification) from the hippocampal CA3 region of vehicle-only (controls) and vehicle/PTZ-treated animals (n = 10) were recorded at constant microscope adjustment and were evaluated with the LSM (LSM 510 Meta, Zeiss) using the semiautomatic image analysis software “Histogram” function. Significant differences were determined by calculating the abundance of densely stained pixels (pixel values lower than 67% of the background) using a two-tailed Wilcoxon rank sum test. […]
compound,measurement,setting,value
"O=C(NCC1(N2CCN(c3ccccc3)CC2)CCOCC1)c1cccnc1Sc1ccccc1 [JNJ-47965567, N-[[4-(4-phenyl-piperazin-1-yl)tetrahydro-2H-pyran-4-yl]-methyl]-2-(phenyl-thio) nicotinamide]",receptor occupancy at 15 mg/kg,P2X7R,98 ± 2%
same,immunostaining for Iba 1 and GFAP compared to vehicle/PTZ-treated animals,[1],clearly reduced
